From patent US10004701B2, “Methods and compositions for treating infection” (UNIVERSITY OF ROCHESTER, priority 2012, dated 2018)
Counter-ions that a name gives are not always drawn. Like-named read-outs stand apart in the source and are kept apart here.

Legend:
Assay in all cases: AK assay 384-well format, Prestwick library screening
E. faecium = assay type: cell-based, Enterococcus faecium; settings: 50 μM final drug concentration; for fold induction at 50 µM: Enterococcus faecium, 3 h
[1] = tested on: S. aureus strain USA300-0114; assay type: cell-based, Staphylococcus aureus; settings: 50 μM final drug concentration; for fold induction at 50 µM: Staphylococcus aureus, USA300, 3 h
K. pneumoniae = assay type: cell-based, Klebsiella pneumoniae; settings: 50 μM final drug concentration; for fold induction at 50 µM: Klebsiella pneumoniae, 3 h
[2] = tested on: A. baumannii strain 98-37-09; assay type: cell-based, Acinetobacter baumannii; settings: 50 μM final drug concentration; for fold induction at 50 µM: Acinetobacter baumannii, 983709, 3 h
P. aeruginosa = assay type: cell-based, Pseudomonas aeruginosa; settings: 50 μM final drug concentration; for fold induction at 50 µM: Pseudomonas aeruginosa, 3 h
E. cloacae = assay type: cell-based, Enterobacter cloacae; settings: 50 μM final drug concentration; for fold induction at 50 µM: Enterobacter cloacae, 3 h
E. coli = assay type: cell-based, Escherichia coli; settings: 50 μM final drug concentration; for fold induction at 50 µM: Escherichia coli, 3 h
[3] = planktonic E. faecium, 384-well, cutoff for positive-scoring molecules 3-fold increase, read-out: AK-based Prestwick Library Screening Results: E. faecium (increase in extracellular AK activity)
[4] = planktonic S. aureus, 384-well, cutoff for positive-scoring molecules 3-fold increase, read-out: AK-based Prestwick Library Screening Results: S. aureus (increase in extracellular AK activity)
[5] = planktonic K. pneumoniae, 384-well, cutoff for positive-scoring molecules 3-fold increase, read-out: AK-based Prestwick Library Screening Results: K. pneumoniae (increase in extracellular AK activity)
[6] = planktonic A. baumannii, 384-well, cutoff for positive-scoring molecules 3-fold increase, read-out: AK-based Prestwick Library Screening Results: A. baumannii (increase in extracellular AK activity)
[7] = planktonic P. aeruginosa, 384-well, cutoff for positive-scoring molecules 3-fold increase, read-out: AK-based Prestwick Library Screening Results: P. aeruginosa (increase in extracellular AK activity)
[8] = planktonic E. cloacae, 384-well, cutoff for positive-scoring molecules 3-fold increase, read-out: AK-based Prestwick Library Screening Results: E. cloacae (increase in extracellular AK activity)
[9] = planktonic E. coli, 384-well, cutoff for positive-scoring molecules 3-fold increase, read-out: AK-based Prestwick Library Screening Results: E. coli (increase in extracellular AK activity)
[10] = planktonic E. faecium, […], read-out: AK-based Prestwick library screening result, E. faecium (fold increase in extracellular AK activity)
[11] = planktonic S. aureus, […], read-out: AK-based Prestwick library screening result, S. aureus (fold increase in extracellular AK activity)
[12] = planktonic K. pneumoniae, […], read-out: AK-based Prestwick library screening result, K. pneumoniae (fold increase in extracellular AK activity)
[13] = planktonic A. baumannii, […], read-out: AK-based Prestwick library screening result, A. baumannii (fold increase in extracellular AK activity)
[14] = planktonic P. aeruginosa, […], read-out: AK-based Prestwick library screening result, P. aeruginosa (fold increase in extracellular AK activity)
[15] = planktonic E. cloacae, […], read-out: AK-based Prestwick library screening result, E. cloacae (fold increase in extracellular AK activity)
[16] = planktonic E. coli, […], read-out: AK-based Prestwick library screening result, E. coli (fold increase in extracellular AK activity)
[17] = planktonic, […], read-out: AK-based Prestwick Library Screening Results, E. faecium (fold increase in extracellular AK activity)
[18] = planktonic, […], read-out: AK-based Prestwick Library Screening Results, S. aureus (fold increase in extracellular AK activity)
[19] = planktonic, […], read-out: AK-based Prestwick Library Screening Results, K. pneumoniae (fold increase in extracellular AK activity)
[20] = planktonic, […], read-out: AK-based Prestwick Library Screening Results, A. baumannii (fold increase in extracellular AK activity)
[21] = planktonic, […], read-out: AK-based Prestwick Library Screening Results, P. aeruginosa (fold increase in extracellular AK activity)
[22] = planktonic, […], read-out: AK-based Prestwick Library Screening Results, E. cloacae (fold increase in extracellular AK activity)
[23] = planktonic, […], read-out: AK-based Prestwick Library Screening Results, E. coli (fold increase in extracellular AK activity)
[24] = planktonic, cutoff for positive 3-fold increase

## O=C(O)CCC(=O)c1ccc(-c2ccccc2)cc1 [Fenbufen]
E. faecium; [3]
  fold induction at 50 µM: 0.8
[1]; [4]
  fold induction at 50 µM: 0.7
K. pneumoniae; [5]
  fold induction at 50 µM: 0.8
[2]; [6]
  fold induction at 50 µM: 1
P. aeruginosa; [7]
  fold induction at 50 µM: 0.8
E. cloacae; [8]
  fold induction at 50 µM: 1.6
E. coli; [9]
  fold induction at 50 µM: 0.8

## CN1[C@@H]2CC[C@H]1C[C@@H](O)C2 [Tropine]
E. faecium; [10]
  fold induction at 50 µM: 0.9
[1]; [11]
  fold induction at 50 µM: 0.7
K. pneumoniae; [12]
  fold induction at 50 µM: 0.8
[2]; [13]
  fold induction at 50 µM: 0.8
P. aeruginosa; [14]
  fold induction at 50 µM: 0.8
E. cloacae; [15]
  fold induction at 50 µM: 1.2
E. coli; [16]
  fold induction at 50 µM: 0.9

## CC1=CC(=O)C2=C(C)C[C@H](O)[C@@H]3[C@H](OC(=O)[C@H]3C)[C@H]12 [Austricine hydrate]
E. faecium; [17]
  fold induction at 50 µM: 1.1
[1]; [18]
  fold induction at 50 µM: 1.2
K. pneumoniae; [19]
  fold induction at 50 µM: 1
[2]; [20]
  fold induction at 50 µM: 1
P. aeruginosa; [21]
  fold induction at 50 µM: 1.1
E. cloacae; [22]
  fold induction at 50 µM: 1.3
E. coli; [23]
  fold induction at 50 µM: 1.2

## CCN[C@H]1C[C@H](C)S(=O)(=O)c2sc(S(N)(=O)=O)cc21 [Dorzolamide hydrochloride]
E. faecium; planktonic E. faecium, positive cutoff 3-fold increase, read-out: AK-based Prestwick library screening result, E. faecium (fold increase in extracellular AK activity)
  fold induction at 50 µM: 2.3
[1]; planktonic S. aureus, positive cutoff 3-fold increase, read-out: AK-based Prestwick library screening result, S. aureus (fold increase in extracellular AK activity)
  fold induction at 50 µM: 1
K. pneumoniae; planktonic K. pneumoniae, positive cutoff 3-fold increase, read-out: AK-based Prestwick library screening result, K. pneumoniae (fold increase in extracellular AK activity)
  fold induction at 50 µM: 1.1
[2]; planktonic A. baumannii, positive cutoff 3-fold increase, read-out: AK-based Prestwick library screening result, A. baumannii (fold increase in extracellular AK activity)
  fold induction at 50 µM: 1.2
P. aeruginosa; planktonic P. aeruginosa, positive cutoff 3-fold increase, read-out: AK-based Prestwick library screening result, P. aeruginosa (fold increase in extracellular AK activity)
  fold induction at 50 µM: 0.9
E. cloacae; planktonic E. cloacae, positive cutoff 3-fold increase, read-out: AK-based Prestwick library screening result, E. cloacae (fold increase in extracellular AK activity)
  fold induction at 50 µM: 1.3
E. coli; planktonic E. coli, positive cutoff 3-fold increase, read-out: AK-based Prestwick library screening result, E. coli (fold increase in extracellular AK activity)
  fold induction at 50 µM: 1.1

## C[N+]1(C)CCC(=C(c2ccccc2)c2ccccc2)CC1 [Diphemanil methylsulfate]
E. faecium; planktonic E. faecium, 384-well, […], read-out: AK-based Prestwick Library Screening Results: E. faecium (increase in extracellular AK activity)
  fold induction at 50 µM: 1.1
[1]; planktonic S. aureus, 384-well, […], read-out: AK-based Prestwick Library Screening Results: S. aureus (increase in extracellular AK activity)
  fold induction at 50 µM: 1.5
K. pneumoniae; planktonic K. pneumoniae, 384-well, […], read-out: AK-based Prestwick Library Screening Results: K. pneumoniae (increase in extracellular AK activity)
  fold induction at 50 µM: 1.1
[2]; planktonic A. baumannii, 384-well, […], read-out: AK-based Prestwick Library Screening Results: A. baumannii (increase in extracellular AK activity)
  fold induction at 50 µM: 1.3
P. aeruginosa; planktonic P. aeruginosa, 384-well, […], read-out: AK-based Prestwick Library Screening Results: P. aeruginosa (increase in extracellular AK activity)
  fold induction at 50 µM: 1
E. cloacae; planktonic E. cloacae, 384-well, […], read-out: AK-based Prestwick Library Screening Results: E. cloacae (increase in extracellular AK activity)
  fold induction at 50 µM: 1.6
E. coli; planktonic E. coli, 384-well, […], read-out: AK-based Prestwick Library Screening Results: E. coli (increase in extracellular AK activity)
  fold induction at 50 µM: 1.2

## CO/N=C(\C(=O)N[C@@H]1C(=O)N2C(C(=O)O)=C(COC(C)=O)CS[C@H]12)c1csc(N)n1 [Cefotaxime sodium salt]
E. faecium; [3]
  fold induction at 50 µM: 1
[1]; [4]
  fold induction at 50 µM: 2.9
K. pneumoniae; [5]
  fold induction at 50 µM: 5.5
[2]; [6]
  fold induction at 50 µM: 2.2
P. aeruginosa; [7]
  fold induction at 50 µM: 10
E. cloacae; [8]
  fold induction at 50 µM: 22
E. coli; [9]
  fold induction at 50 µM: 21.9

## O=C1C=CC(=O)c2c1ccc1c2ccc2ccccc21 [Chrysene-1,4-quinone]
E. faecium; [17]
  fold induction at 50 µM: 0.9
[1]; [18]
  fold induction at 50 µM: 0.1
K. pneumoniae; [19]
  fold induction at 50 µM: 0.8
[2]; [20]
  fold induction at 50 µM: 0.8
P. aeruginosa; [21]
  fold induction at 50 µM: 1
E. cloacae; [22]
  fold induction at 50 µM: 1.4
E. coli; [23]
  fold induction at 50 µM: 1.1

## COc1cc(N)c(Cl)cc1C(=O)NC1CCN(Cc2ccccc2)CC1 [Clebopride maleate]
E. faecium; planktonic, cutoff for positive 3-fold increase, read-out: AK-based Prestwick Library Screening Results, E. faecium (fold increase in extracellular AK activity)
  fold induction at 50 µM: 1.1
[1]; planktonic, cutoff for positive 3-fold increase, read-out: AK-based Prestwick Library Screening Results, S. aureus (fold increase in extracellular AK activity)
  fold induction at 50 µM: 1.2
K. pneumoniae; planktonic, cutoff for positive 3-fold increase, read-out: AK-based Prestwick Library Screening Results, K. pneumoniae (fold increase in extracellular AK activity)
  fold induction at 50 µM: 1
[2]; planktonic, cutoff for positive 3-fold increase, read-out: AK-based Prestwick Library Screening Results, A. baumannii (fold increase in extracellular AK activity)
  fold induction at 50 µM: 1
P. aeruginosa; planktonic, cutoff for positive 3-fold increase, read-out: AK-based Prestwick Library Screening Results, P. aeruginosa (fold increase in extracellular AK activity)
  fold induction at 50 µM: 0.9
E. cloacae; planktonic, cutoff for positive 3-fold increase, read-out: AK-based Prestwick Library Screening Results, E. cloacae (fold increase in extracellular AK activity)
  fold induction at 50 µM: 1.6
E. coli; planktonic, cutoff for positive 3-fold increase, read-out: AK-based Prestwick Library Screening Results, E. coli (fold increase in extracellular AK activity)
  fold induction at 50 µM: 1

## O=S(=O)(O)c1cc(O)ccc1O [Ethamsylate]
E. faecium; [10]
  fold induction at 50 µM: 0.9
[1]; [11]
  fold induction at 50 µM: 1
K. pneumoniae; [12]
  fold induction at 50 µM: 1.1
[2]; [13]
  fold induction at 50 µM: 1.2
P. aeruginosa; [14]
  fold induction at 50 µM: 1
E. cloacae; [15]
  fold induction at 50 µM: 0.8
E. coli; [16]
  fold induction at 50 µM: 1.2

## COc1cc2c(cc1OC)C(C)NCC2.Cl (stereo not shown)
E. faecium; [24]
  AK-based Prestwick Library Screening Results, E. faecium (fold increase in extracellular AK activity): 0.9
[1]; [24]
  AK-based Prestwick Library Screening Results, S. aureus (fold increase in extracellular AK activity): 1.0
K. pneumoniae; [24]
  AK-based Prestwick Library Screening Results, K. pneumoniae (fold increase in extracellular AK activity): 1.0
[2]; [24]
  AK-based Prestwick Library Screening Results, A. baumannii (fold increase in extracellular AK activity): 1.0
P. aeruginosa; [24]
  AK-based Prestwick Library Screening Results, P. aeruginosa (fold increase in extracellular AK activity): 1.2
E. cloacae; [24]
  AK-based Prestwick Library Screening Results, E. cloacae (fold increase in extracellular AK activity): 1.5
E. coli; planktonic, […]
  AK-based Prestwick Library Screening Results, E. coli (fold increase in extracellular AK activity): 1.3
